Source: ChEMBL document CHEMBL1201862, “PubChem BioAssay data set” (2004)
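1) Cells in 96-well plates. 2) Compound, 48 h, 5 concentrations. 3) Linear interpolation between surrounding doses. 4) Unreached endpoint = highest concentration. Here, GI50 denotes the concentration required for 50% inhibition of growth.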 Calls of active or inactive are those of the source. Rule as the data show it: active = GI50 up to about 1.1 µM and inactive = higher.

How the values were obtained:
Assay in all cases: NCI tumour cell line growth inhibition, 48 h
SNB-19 = tested on: SNB-19
SK-MEL-28 = tested on: SK-MEL-28
UO-31 = tested on: UO-31
OVCAR-4 = tested on: OVCAR-4
SNB-75 = tested on: SNB-75
Hs-578T = tested on: Hs-578T
TK-10 = tested on: TK-10
K562 = tested on: K562
NCI-H23 = tested on: NCI-H23
U-251 = tested on: U-251
BT-549 = tested on: BT-549
CCRF-CEM = tested on: CCRF-CEM
OVCAR-3 = tested on: OVCAR-3
COLO 205 = tested on: COLO 205
HOP-92 = tested on: HOP-92
HT-29 = tested on: HT-29
SK-MEL-2 = tested on: SK-MEL-2
OVCAR-8 = tested on: OVCAR-8
A498 = tested on: A498
EKVX = tested on: EKVX
SF-295 = tested on: SF-295
HOP-62 = tested on: HOP-62
Malme-3M = tested on: Malme-3M
SR = tested on: SR
IGROV-1 = tested on: IGROV-1
NCI-H460 = tested on: NCI-H460
UACC-257 = tested on: UACC-257
NCI-H226 = tested on: NCI-H226
CAKI-1 = tested on: CAKI-1
KM12 = tested on: KM12
SF-539 = tested on: SF-539
SK-OV-3 = tested on: SK-OV-3
MDA-MB-435 = tested on: MDA-MB-435
SK-MEL-5 = tested on: SK-MEL-5
MOLT-4 = tested on: MOLT-4
A549 = tested on: A549
UACC-62 = tested on: UACC-62
786-0 = tested on: 786-0
DU-145 = tested on: DU-145
LOX IMVI = tested on: LOX IMVI
ACHN = tested on: ACHN
HCC 2998 = tested on: HCC 2998
NCI/ADR-RES = tested on: NCI/ADR-RES
SW-620 = tested on: SW-620
MCF7 = tested on: MCF7
MDA-MB-231 = tested on: MDA-MB-231
M14 = tested on: M14
HCT-116 = tested on: HCT-116
MDA-N = tested on: MDA-N
RXF 393 = tested on: RXF 393
OVCAR-5 = tested on: OVCAR-5
HL-60 = tested on: HL-60
RPMI-8226 = tested on: RPMI-8226
HCT-15 = tested on: HCT-15
SF-268 = tested on: SF-268
SN12C = tested on: SN12C
PC-3 = tested on: PC-3
T47D = tested on: T47D
NCI-H522 = tested on: NCI-H522

Measured: GI50

COc1ccc2c(c1)/C(=C\c1c(Cl)n(-c3ccccc3)c3ccccc13)C(=O)N2
inactive: SNB-19 3.67 µM | SK-MEL-28 9.31 µM | UO-31 1.53 µM | OVCAR-4 9.2 µM | SNB-75 6.59 µM | TK-10 15.5 µM | K562 2.19 µM | NCI-H23 6.01 µM | U-251 4.19 µM | BT-549 10.7 µM | CCRF-CEM 3.85 µM | OVCAR-3 2.25 µM | COLO 205 3.61 µM | HOP-92 2.08 µM | HT-29 3.48 µM | SK-MEL-2 6.73 µM | OVCAR-8 5.77 µM | A498 5.27 µM | EKVX 5.86 µM | SF-295 3.91 µM | HOP-62 12.2 µM | Malme-3M 2.83 µM | SR 2.59 µM | IGROV-1 4.12 µM | NCI-H460 5.07 µM | UACC-257 8.97 µM | NCI-H226 2.28 µM | CAKI-1 4.08 µM | KM12 3.18 µM | SF-539 2.98 µM | SK-OV-3 7.36 µM | MDA-MB-435 1.64 µM | SK-MEL-5 4.34 µM | MOLT-4 2.23 µM | A549 4.34 µM | UACC-62 5.89 µM | 786-0 8.45 µM | DU-145 5.89 µM | LOX IMVI 6.44 µM | ACHN 9.18 µM | HCC 2998 4.89 µM | NCI/ADR-RES 2.49 µM | SW-620 4.75 µM | MCF7 3.45 µM | MDA-MB-231 13.4 µM | M14 3.2 µM | HCT-116 2.99 µM | MDA-N 1.74 µM | RXF 393 2.45 µM | OVCAR-5 12.4 µM | HL-60 2.72 µM | RPMI-8226 1.38 µM | SF-268 2.85 µM | SN12C 13.6 µM | PC-3 7.23 µM | T47D 5.94 µM
2.36 µM: HCT-15
active: Hs-578T 0.479 µM

O=C1CCC2(O)C3Cc4ccc(Oc5nnnn5-c5ccccc5)c5c4C2(CCN3CC2CC2)C1O5 (stereo not drawn)
35.5 µM: HCT-15
inactive: SNB-19 95.7 µM | SK-MEL-28 14.9 µM | UO-31 24.2 µM | OVCAR-4 79.6 µM | SNB-75 > 100 µM | Hs-578T 28.9 µM | TK-10 62.5 µM | K562 22.2 µM | NCI-H23 > 100 µM | U-251 33.4 µM | BT-549 96.2 µM | CCRF-CEM 18.6 µM | OVCAR-3 46.7 µM | COLO 205 17.5 µM | HOP-92 50.2 µM | HT-29 26.4 µM | SK-MEL-2 22.1 µM | OVCAR-8 63.4 µM | A498 29.8 µM | EKVX > 100 µM | SF-295 70 µM | HOP-62 > 100 µM | Malme-3M 17.8 µM | SR 15.6 µM | IGROV-1 > 100 µM | NCI-H460 56.5 µM | UACC-257 28.2 µM | CAKI-1 > 100 µM | KM12 > 100 µM | SK-OV-3 > 100 µM | MDA-MB-435 19.9 µM | SK-MEL-5 12.8 µM | MOLT-4 21 µM | A549 > 100 µM | UACC-62 28.7 µM | 786-0 20 µM | DU-145 > 100 µM | LOX IMVI 27 µM | ACHN > 100 µM | NCI/ADR-RES 86.7 µM | SW-620 33.7 µM | MCF7 54 µM | MDA-MB-231 58.6 µM | M14 18 µM | HCT-116 43.6 µM | MDA-N 22 µM | RXF 393 39.1 µM | OVCAR-5 > 100 µM | RPMI-8226 28.9 µM | NCI-H522 23.3 µM | SF-268 34.7 µM | SN12C > 100 µM | PC-3 67 µM | T47D 39.5 µM
